The values that follow come from patent US20070149400A1, “6-(2-Chloro-4-alkoxyphenyl)triazolopyrimidines, their preparation and their use for controlling harmful fungi, and compositions comprising these compounds” (priority 2003, published 2007).

For this assay, the system named is Alternaria solani. Kind of assay: Activity against early blight of tomato caused by Alternaria solani (protective spray, potted plants). The assay is classed as in vivo. Conditions: 63 ppm active compound, tomato cultivar Goldene Prinzessin, infected next day, assessed after 5 days; untreated plants 90% infected. How it is done: The active compounds were prepared as a stock solution comprising 0.25% by weight of active compound in acetone or DMSO. 1% by weight of the emulsifier Uniperol® EL (wetting agent having emulsifying and dispersing action based on ethoxylated alkylphenols) was added to this solution, and the mixture was diluted with water to the desired concentration. Leaves of potted plants of the cultivar “Goldene Prinzessin” were sprayed to run off point with an aqueous suspension having the concentration of active compounds stated below. The next day, the leaves were infected with an aqueous […] suspension of Alternaria solani in 2% biomalt solution having a density of 0.17×10^6 spores/ml. The plants were then placed in a water-vapor-saturated chamber at temperatures of between 20 and 22° C. After 5 days, the disease on the leaves of the untreated, but infected control plants had developed to such an extent that the infection could be determined visually in %.

Consider `CCC(C)Nc1c(-c2ccc(OC)cc2Cl)c(Cl)nc2ncnn12` (racemic) [Compound I-3, 5-chloro-6-(2-chloro4-methoxyphenyl)-7-but-2-ylamino-[1,2,4]-triazolo[1,5-a]pyrimidine], for which the “infection of the leaves, determined visually in %” value was “no infection”.
